The values that follow are results of earlier work, collected in US20150209399A1, “Methods For Enhacement Of Dehydroepiandrosterone Using Green Coffee Bean Extract” (Applied Food Sciences, Inc., priority 2013, published 2015).

For data set [1] the following is noted: human, in vivo.
The subject of data set [2] is human coxsackievirus B4 strain.
The conditions of data set [3]: 300 mg DHEA per day orally, second week; baseline 316.2.
The subject of a further data set is platelet aggregation. To be noted: four of the five test subjects who received DHEA; second week.

In the case of chlorogenic acids, in data set [1], the half-life entry is given as “less than 12 hours”.

For the compound `C[C@]12CCC(O)CC1=CC[C@@H]1[C@@H]2CC[C@]2(C)C(=O)CC[C@@H]12` (some centres unmarked) [DHEA, 3-hydroxyandrost-5-en-17-one], the “mortality of infected animals treated with DHEA” value in data set [2] (100,000 plaque forming units/animal, about 90% mortality in infected animals) is listed as 37%. Also, the “elevation in the number of antibody forming cells” value in data set [2] (within the animal) is 80%. The “mean serum DHEA-S level, DHEA group” value in data set [3] is 1451.9 ± 56.7 µg/dL. The “rate of platelet aggregation” value in the data set on platelet aggregation was “slower rate of aggregation”.
